# Results reported in a melting point compilation (Tetko et al.; mined from patent text by program, amines drawn as free bases though some values may be those of a salt).
row,melting point,Compound
1,184 to 186 °C,O=C1Nc2nncn2CC1c1ccccc1 (stereo not given)
2,258 °C,O=C(O)c1ncn(Cc2ccc(Cl)c(Cl)c2)c1C(=O)O
3,280 to 282 °C,O=C(O)c1ccc(C(=O)Nc2ccccc2C(c2ccc(O)cc2)c2ccc(O)cc2)cc1
4,258 to 262 °C,CCn1cnc2c(N)nc(Cl)nc21
5,242 °C,COC(=O)c1cnc(Nc2cc(N3CCN(CCO)CC3)nc(C)n2)s1
6,153 to 155 °C,CCCCC(CNC(=O)Nc1c(C(C)C)cccc1C(C)C)c1ccc2c(c1)OCO2 (stereo not given)
7,156 to 158 °C,CCC(OC(C)=O)C(=O)Nc1ccc(I)cc1Cl (stereo not given)
8,142 °C,O=c1[nH]c2ccccc2n1CCCN1CCN(C(c2ccccc2)c2ccccn2)CC1 (stereo not given)
9,79 °C,COc1ccc(Nc2nc(NC3CCCCCC3)nc(N3CCCC3)n2)cc1F
10,178 to 180 °C,O=C1ON(c2ccccc2Cl)C(c2ccccc2)C1c1ccccc1 (stereo not given)
11,159 to 162 °C,CC(Cn1ccnc1)Cn1cnc2ccc(Br)cc2c1=O (stereo not given)
12,202 to 208 °C,CC1(C)CS(=O)(=O)c2ccccc2C1c1cncnc1S(C)(=O)=O (stereo not given)
13,82 °C,CC(C)(O)C[C@@H]1CO[C@](C)([C@H]2CC[C@H]3C(=O)CCC[C@@]32C)C1
14,163 to 165 °C,N#Cc1ccc(C2C(=O)N(Cc3ccccc3)Cc3cncn32)cc1 (stereo not given)
15,214 to 217 °C,CC(c1oc2ccccc2c(=O)c1-c1cccc(F)c1)n1nc(-c2ccc(N(C)C)cc2)c2c(N)ncnc21 (stereo not given)
16,101 to 102 °C,CC(C)C1CCC(C)(OC(=O)OC2(C)CCC(C(C)C)CC2)CC1 (stereo not given)
17,158 to 159 °C,Nc1ccc(Oc2ccccc2)cc1SC(c1ccc2c(c1)OCO2)C(O)C(=O)O (stereo not given)
18,> 300 °C,CCNc1nc(C)c(-c2ccnc(Nc3cc(Cl)c(N4CCOCC4)c(Cl)c3)n2)s1

row,melting point,Compound
1,129 to 131 °C,CN(c1ccc(Cl)cc1)c1ncnc2cc(Cl)ccc12
2,174 °C,O=C(Nc1ccc(OC(F)F)cc1)N1N=C(c2ccc(Cl)cc2)CC1c1ccc(Cl)cc1 (stereo not given)
3,104 to 106 °C,COC(=O)C(=O)CC(=O)c1ccc(Cc2ccc(Cl)c(Cl)c2)cc1
4,174 to 175 °C,CCC(CC)c1ccc(Cl)c2nc3n(c12)CCCCN3c1ccc(N(C)C)cc1C
5,71 to 76 °C,CCNC(=O)c1sc(S(C)=O)cc1[Si](C)(C)C (stereo not given)
6,109 to 111 °C,Cc1ccc2c(Cl)cc(C(=O)NCCCc3ccccc3)c(O)c2n1
7,104 to 107 °C,CCCCCCCCCCCCCCCCCCNc1nc(NCC(O)C2CC(C)(C)NC(C)(C)C2)nc(NCC(O)C2CC(C)(C)NC(C)(C)C2)n1 (stereo not given)
8,214 °C,Cc1ccc(N2C(=O)c3ccccc3C2=O)nn1
9,217 °C,CCCc1c(O)n2c3c(=O)n(C)c(=O)n(C)c3nc2n(Cc2ccccc2)c1=O
10,208 to 210 °C,Cc1ccc(N2CCN(Cc3ccc4c(c3)OCC(=O)N4)CC2)cc1
11,169 to 170 °C,Cc1ncn(-c2cc(C(Cl)(Cl)Cl)c3cc(C(Cl)(Cl)Cl)ccc3n2)n1
12,71 °C,Cc1ccc(SCc2noc(-c3ccccc3)n2)cc1
13,146 to 150 °C,Cc1ccc2c(c1)C=Cc1oc(C)nc1C2c1cn(C)c(=O)[nH]c1=S (stereo not given)
14,168 to 172 °C,Cc1cc(C)c(-c2ccnc(Nc3ccc(F)cc3)n2)[nH]1
15,148 to 150 °C,COc1ccc(S(N)(=O)=O)cc1C(=O)Cl
16,29 to 33 °C,C[C@H]1CCCC(C)(C)[C@@H]1[C@H](O)c1ccc(OC(F)(F)F)cc1
17,125 °C,CCOC(=O)/C=C/[C@H]1CC[C@H](c2ccc(C#N)cc2)CC1
18,274 to 276 °C,Cc1ccc(Br)cc1NS(=O)(=O)c1ccccc1C(=O)O

row,Compound,melting point
1,CON=C(C(=O)O)C(=O)CBr,76 to 78 °C
2,CNC(=S)N1CCSC1c1ccccc1OCCN1CC=C(c2cccc(F)c2)CC1 (stereo not given),147 to 148 °C
3,CN1CCCC(O)(c2cccc3[nH]ccc23)C1 (stereo not given),250 °C
4,ClC1=NCc2c(-c3noc(C4CC4)n3)ncn2-c2ccc(Cl)cc21,200 °C
